In publication PMC8296708, “The pan HDAC inhibitor Givinostat improves muscle function and histological parameters in two Duchenne muscular dystrophy murine models expressing different haplotypes of the LTBP4 gene” (Skeletal Muscle, 2021):

Key:
Format in all cases: in vivo, mouse (D2.B10-Dmd^mdx/J)
[1] = tested on: D2.B10 mice; test: Grip strength test (FNmax) in D2.B10 mice; details: for FNmax from day 62 onwards: Givinostat 5, 10 and 37.5 mg/kg, vs vehicle; for FNmax from day 62 onwards / FNmax from day 21 until days 49-62: prednisone 1 mg/kg i.p. weekly; for FNmax from day 21 until days 49-62: Givinostat 10 and 37.5 mg/kg
Description: (§1) For the efficacy studies, C57BL/10 J (Stock No: 000665) wild type (wt) and C57BL/10ScSn-Dmd^mdx/J (Stock No: 001801) 7–8-week-old male mice, DBA/2J wt (Stock No: 000671), and D2.B10-Dmd^mdx/J (Stock No: 013141) 6–7-week-old male mice were purchased from The Jackson Laboratories (Bar Harbor, Maine, USA). After 5 days of acclimatization in the animal facility, mice were randomized into different treatment groups based on their BW. C57BL/10J wt mice were assigned to the naive wt group (healthy mice that received no treatment, but were subjected to functional tests), whereas mdx mice were assigned to the following groups (9 mice/group; 4–5 mice/cage): naive mdx (mice that received no treatment, but were subjected to functional tests), vehicle (0.5% methylcellulose, p.o.), and Givinostat (0.1, 0.3, 1, 5, 10, 25, and 37.5 mg/kg, p.o.). DBA/2J mice were assigned to the naive wt group (healthy mice that received no treatment, but were subjected to functional tests), whereas D2.B10 mice were assigned to the following groups (12–13 mice/group; 4–5 mice/gage): vehicle (filtered tap water, p.o.), Givinostat (1, 5, 10, and 37.5 mg/kg, p.o.), prednisone 1 mg/kg, and Deflazacort 1 mg/kg (i.p.).
(§2) In the efficacy studies, Givinostat powder (ITF2357) was suspended in 0.5% methylcellulose (Sigma-Aldrich) and administered p.o. (by gavage) at the doses of 0.1, 0.3, 1, 5, 10, 25, and 37.5 mg/kg qdx5x15weeks (administration volume per mouse: 10 mL/kg) in mdx mice (see Additional Figure 1A). Vehicle-treated mdx mice received 0.5% methylcellulose suspension. Givinostat suspension was stored at + 4 °C, and it was freshly prepared every 7 days. Probably due to the impairment of their tongue and masticatory muscles, the oral gavage procedure turned out to be difficult to perform, and chronic treatment of D2.B10 mice by this route was considered to bear a high risk of damaging the esophagus. For this reason, Givinostat was administered in the drinking water. Givinostat was dissolved in filtered tap water and was administered in drinking water (throughout 24 h) for 105 days at the dose of 1, 5, 10, and 37.5 mg/kg/day, according to a daily estimate of water consumption of 4 ml/mouse/day. Water consumption was weekly monitored throughout the entire duration of the study weighing the bottle of each cage (maximum 4 mice per cage). Prednisone and Deflazacort powder (Sigma-Aldrich) was dissolved in 2% DMSO (Sigma-Aldrich) and diluted in sterile saline on injection days. Both drugs were administered weekly (for 15 weeks) by i.p. injection at the dose of 1 mg/kg in a volume of 10 mL/kg. Givinostat and steroid treatments started on days 7 and 9 of the experimental plan, respectively (see Additional Figure 1B). All mice were monitored daily and tolerability was evaluated on the basis of BW and clinical signs.
In both efficacy studies, the effectiveness of treatments was evaluated every week by measuring the forelimb strength by a grip strength meter (Ugo Basile SRL, Italy). BW of mdx (see Additional Figure 2) and D2.B10 mice (see Additional Figure 3) was also measured in order to normalize the absolute grip strength of each mouse with respect to its BW. The protocol provides 5 measurements for each mouse (the procedure was compliant with the standard operating procedures of TREAT–NMD Neuromuscular Network). The highest recorded value of maximal normalized strength (FNmax) obtained for each mouse at all the time points (from T0 to T15) was used for further analysis.
After taking baseline readings for behavioral assays (FNmax and distance run by the animals), mice were re-randomized based on these two parameters, also considering the previous randomization performed on their BW.
The grip strength and run to exhaustion tests were performed during the light-cycle phase, in the early hours of the morning (8:00–11:30 am). […]

[2] = tested on: D2.B10 mice; test: Treadmill run to exhaustion test in D2.B10 mice; details: for Effect on distance run, significance: Deflazacort, prednisone 1 mg/kg, lower doses of Givinostat
Description: as §1, §2
Run to exhaustion performance of mdx and D2.B10 mice was evaluated every 14 or 21 days, respectively, using a treadmill apparatus (Ugo Basile SRL, Italy). The exhaustion protocol consisted in an initially horizontal running at 5 m/min for 5 min after which the speed was increased 1 m/min every minute until exhaustion (the procedure was compliant with the standard operating procedures of TREAT–NMD Neuromuscular Network). […]
After taking baseline readings for behavioral assays (FNmax and distance run by the animals), mice were re-randomized based on these two parameters, also considering the previous randomization performed on their BW. […]

[3] = tested on: D2.B10 mice; test: Centralized nuclei (%) in muscles of D2.B10 mice; details: Givinostat 37.5 mg/kg; for Nuclear centralization in TA: prednisone (vehicle 21.2 ± 1.0); for Nuclear centralization in GAS: prednisone (vehicle 25.1 ± 1.5)
Description: Tibialis anterior (TA), gastrocnemius (GAS), DIA, and heart were collected from mice maintained under isoflurane anesthesia and sacrificed by cervical dislocation. These muscles were collected from C57BL/10J wt and mdx (5 mice/group) at the end of treatments and from DBA/2J wt and D2.B10 mice (5 mice/group) at two different time points to be examined by a pathologist (for more details see Additional Table 1). Due to the results obtained by the functional tests, muscles from only some treatment groups were analyzed in both DMD models (see Additional Table 1). All the collected muscles were fixed in 10% buffered formalin solution (Bio-optica, Milan, Italy) at + 4 °C for at least 48 h. After fixation, muscular samples were transversely trimmed, caged, and paraffin embedded overnight with an Automated Vacuum Tissue Processor Floor (ETP, Histo-Line Laboratories) and included in paraffin blocks. Serial transverse cross-sections (4 μm thick) were cut with a microtome (Leica RM 2255), collected onto uncoated glass slides, and stained using a standard protocol for hematoxylin and eosin (Mayer hematoxylin & Aqueous G Eosin 1%, Bio-Optica) and Sirius Red staining (Direct Red 80, Sigma-Aldrich). For the image analysis and quantitation, hematoxylin and eosin- and Sirius Red-stained slides were examined with an Olympus BX51 light microscope. From each sample, 1 to 3 random microphotographs at the magnification of × 4 and × 10 (TA, GAS and heart) or × 20 (DIA) were collected using Image-Pro Plus system. The digital images were processed by a pathologist using ImageJ software (U.S. National Institutes of Health, Bethesda, MD, USA). To quantify CSA and centralized nuclei (%) on hematoxylin and eosin-stained sections, one hundred myofibers were manually measured for each muscle/mouse using a tablet pen (Wacom Intruos) and analyzed by the ImageJ software after a linear calibration of 150 μm. The fibrotic area, corresponding to the area stained in red, was compared to the total area of the tissue section, and the results were expressed as percentage fibrosis. The % of fibrosis of muscles in the different treatment groups was expressed by averaging the three values obtained from each muscle.

Structure (SMILES) | Lowest dose with significant effect on FNmax from day 21 to day 104 [1] [mg/kg] | Effect on FNmax ([1]; 1-37.5 mg/kg/day in drinking water) | Time interval of significant FNmax improvement ([1]; Deflazacort 1 mg/kg i.p. weekly, Givinostat 1 mg/kg) | FNmax from day 62 onwards [1] | FNmax from day 21 until days 49-62 [1] | Difference in FNmax, Givinostat 37.5 mg/kg vs Deflazacort ([1]; days 90 and 97, p < 0.05 and p < 0.01) | Dose of maximal efficacy on FNmax ([1]; drinking water) [mg/kg] | Significant differences in FNmax, Givinostat 37.5 mg/kg versus prednisone ([1]; p < 0.05) | Effect on distance run, significance [2] | Distance run ([2]; Givinostat top dose (37.5 mg/kg), day 105 (vehicle 296 ± 17 m)) [meters] | Time to exhaustion ([2]; highest dose, day 105) | Nuclear centralization in TA [3] [%] | Nuclear centralization in GAS [3] [%] | Effect of steroid on FNmax in comparison ([1]; 1 mg/kg i.p. weekly, all the treatment period)
CCN(CC)Cc1ccc2cc(COC(=O)Nc3ccc(C(=O)NO)cc3)ccc2c1 [Givinostat] | 10 | dose-dependent | from day 42 to days 90/104 | remained significantly elevated until day 104 | increased the FNmax of D2.B10-treated mice to that of wt healthy mice | a significant difference was also seen | 37.5 | observed only at days 90 and 97 | not statistically significant | 473 ± 22 | significantly prolonged the time to exhaustion | 19.8 ± 2.4 | 22.4 ± 2.1 | 
C[C@]12C=CC(=O)C=C1CC[C@@H]1[C@@H]2C(=O)C[C@@]2(C)[C@H]1CC[C@]2(O)C(=O)CO [prednisone] |  |  |  | remained significantly elevated until day 104 | increased the FNmax of D2.B10-treated mice to that of wt healthy mice |  |  |  | not statistically significant |  |  | 22.0 ± 2.4 | 21.6 ± 1.7 | comparable to that of Givinostat 5 e 10 mg/kg
